Laboratory results: patent publication US8076487B2, “Pyridone derivative and herbicide” (Kumiai Chemical Industry Co., Ltd., priority 2006, dated 2011)

Assays:
Assay type in all cases: in vivo
[1] = system: Japanese bulrush (Scirpus juncoides Roxb.); assay: Test Example 1: herbicidal effect by soil application to paddy field; conditions: paddy field soil application; active ingredient 1,000 g per 1 hectare; wettable powder added dropwise to water surface the day after sowing; examined on the 21st day after application
Summary of the method: (§1)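 Under greenhouse conditions, seeds sown on puddled paddy soil in 100 cm2 pots under 3 cm of standing water received the test compound; injury was assessed with a standard scoring scheme three weeks (day 21) after treatment.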

[2] = system: early watergrass (Echinochloa oryzicola Vasing); assay: as above; conditions: paddy field soil application; active ingredient 1,000 g per 1 hectare; wettable powder added dropwise to water surface the day after sowing; examined on the 21st day after application
Summary of the method: as §1

[3] = system: heartshape false pickerelweed (Monochoria vaginalis (Burm.f.) C.Presl); assay: as above; conditions: paddy field soil application; active ingredient 1,000 g per 1 hectare; wettable powder added dropwise to water surface the day after sowing; examined on the 21st day after application
Summary of the method: as §1

[4] = system: barnyardgrass (Echinochloa crus-galli (L.) P. Beauv. var. crus-galli); assay: Test Example 2: herbicidal effect by soil application to upland field; conditions: soil surface spray, upland field soil, 1,000 g active ingredient per hectare, 21st day after application
Summary of the method: (§2)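 After sowing and covering, the soil received an even aqueous spray of wettable powder at a rate of 1,000 g active ingredient/ha (1,000 L/ha). Ratings of herbicidal effect followed a standard scale 21 days post-treatment, with plants held in a greenhouse.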

[5] = system: green foxtail (Setaria viridis (L.) P. Beauv.); assay: as above; conditions: soil surface spray, upland field soil, 1,000 g active ingredient per hectare, 21st day after application
Summary of the method: as §2

[6] = system: slender amaranth (Amaranthus viridis L.); assay: as above; conditions: soil surface spray, upland field soil, 1,000 g active ingredient per hectare, 21st day after application
Summary of the method: as §2

[7] = system: velvetleaf (Abutilon theophrasti medicus); assay: as above; conditions: soil surface spray, upland field soil, 1,000 g active ingredient per hectare, 21st day after application
Summary of the method: as §2

[8] = system: barnyardgrass (Echinochloa crus-galli (L.) P. Beauv. var. crus-galli); assay: Test Example 3: herbicidal effect by application to upland field (foliage treatment); conditions: foliage treatment, 1,000 g active ingredient per 1 hectare, 14th day after application, greenhouse
Summary of the method: (§3)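 Foliar spray on two-week-old greenhouse weeds in field soil: wettable powder formulation diluted in water, applied at 1,000 L/ha to give 1,000 g a.i./ha. Damage rated by a fixed scoring standard on day 14 after application.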

[9] = system: green foxtail (Setaria viridis (L.) P. Beauv.); assay: as above; conditions: foliage treatment, 1,000 g active ingredient per 1 hectare, 14th day after application, greenhouse
Summary of the method: as §3

[10] = system: slender amaranth (Amaranthus viridis L.); assay: as above; conditions: foliage treatment, 1,000 g active ingredient per 1 hectare, 14th day after application, greenhouse
Summary of the method: as §3

[11] = system: velvetleaf (Abutilon theophrasti medicus); assay: as above; conditions: foliage treatment, 1,000 g active ingredient per 1 hectare, 14th day after application, greenhouse
Summary of the method: as §3

Structure (SMILES) | herbicidal effect, Scirpus juncoides Roxb. [1] | herbicidal effect, Echinochloa oryzicola Vasing [2] | herbicidal effect, Monochoria vaginalis (Burm. f.) C. Presl [3] | herbicidal effect (index), Barnyardgrass [4] | herbicidal effect (index), Green Foxtail [5] | herbicidal effect (index), Slender Amaranth [6] | herbicidal effect (index), Velvetleaf [7] | herbicidal effect, Barnyardgrass [8] | herbicidal effect, Green Foxtail [9] | herbicidal effect, Slender Amaranth [10] | herbicidal effect, Velvetleaf [11]
Cn1ncc(C(=O)c2ccc(C(F)(F)F)n(C)c2=O)c1OC(=O)c1ccccc1 [IV-197] | 5 (90% or more of herbicidal effect and crop phytotoxicity) | 5 (90% or more of herbicidal effect and crop phytotoxicity) | 5 (90% or more of herbicidal effect and crop phytotoxicity) | 4 (70 to less than 90% of herbicidal effect and crop phytotoxicity) | 4 (70 to less than 90% of herbicidal effect and crop phytotoxicity) | 5 (90% or more of herbicidal effect and crop phytotoxicity) | 5 (90% or more of herbicidal effect and crop phytotoxicity) | 4 (70 to less than 90% of herbicidal effect and crop phytotoxicity) | 4 (70 to less than 90% of herbicidal effect and crop phytotoxicity) | 5 (90% or more of herbicidal effect and crop phytotoxicity) | 5 (90% or more of herbicidal effect and crop phytotoxicity)
Cn1ncc(C(=O)c2ccc(C(F)(F)F)n(C)c2=O)c1OC(=O)c1ccc(C(C)(C)C)cc1 [IV-198] | 5 (90% or more of herbicidal effect and crop phytotoxicity) | 5 (90% or more of herbicidal effect and crop phytotoxicity) | 5 (90% or more of herbicidal effect and crop phytotoxicity) | 3 (50 to less than 70% of herbicidal effect and crop phytotoxicity) | 3 (50 to less than 70% of herbicidal effect and crop phytotoxicity) | 5 (90% or more of herbicidal effect and crop phytotoxicity) | 4 (70 to less than 90% of herbicidal effect and crop phytotoxicity) | 4 (70 to less than 90% of herbicidal effect and crop phytotoxicity) | 3 (50 to less than 70% of herbicidal effect and crop phytotoxicity) | 5 (90% or more of herbicidal effect and crop phytotoxicity) | 5 (90% or more of herbicidal effect and crop phytotoxicity)
Cn1ncc(C(=O)c2ccc(C(F)(F)F)n(C)c2=O)c1OC(=O)OCc1ccccc1 [IV-199] | 5 (90% or more of herbicidal effect and crop phytotoxicity) | 5 (90% or more of herbicidal effect and crop phytotoxicity) | 5 (90% or more of herbicidal effect and crop phytotoxicity) | 5 (90% or more of herbicidal effect and crop phytotoxicity) | 4 (70 to less than 90% of herbicidal effect and crop phytotoxicity) | 5 (90% or more of herbicidal effect and crop phytotoxicity) | 5 (90% or more of herbicidal effect and crop phytotoxicity) | 4 (70 to less than 90% of herbicidal effect and crop phytotoxicity) | 3 (50 to less than 70% of herbicidal effect and crop phytotoxicity) | 5 (90% or more of herbicidal effect and crop phytotoxicity) | 5 (90% or more of herbicidal effect and crop phytotoxicity)
Cn1ncc(C(=O)c2ccc(C(F)(F)F)n(C)c2=O)c1OC(=O)OCc1ccc(Cl)cc1 [IV-200] | 5 (90% or more of herbicidal effect and crop phytotoxicity) | 5 (90% or more of herbicidal effect and crop phytotoxicity) | 5 (90% or more of herbicidal effect and crop phytotoxicity) | 5 (90% or more of herbicidal effect and crop phytotoxicity) | 4 (70 to less than 90% of herbicidal effect and crop phytotoxicity) | 5 (90% or more of herbicidal effect and crop phytotoxicity) | 5 (90% or more of herbicidal effect and crop phytotoxicity) | 4 (70 to less than 90% of herbicidal effect and crop phytotoxicity) | 3 (50 to less than 70% of herbicidal effect and crop phytotoxicity) | 5 (90% or more of herbicidal effect and crop phytotoxicity) | 5 (90% or more of herbicidal effect and crop phytotoxicity)
CCCn1c(C(F)(F)F)ccc(C(=O)c2cnn(CC)c2OS(=O)(=O)CCC)c1=O [IV-202] | 5 (90% or more of herbicidal effect and crop phytotoxicity) | 5 (90% or more of herbicidal effect and crop phytotoxicity) | 5 (90% or more of herbicidal effect and crop phytotoxicity) | 5 (90% or more of herbicidal effect and crop phytotoxicity) | 5 (90% or more of herbicidal effect and crop phytotoxicity) | 5 (90% or more of herbicidal effect and crop phytotoxicity) | 5 (90% or more of herbicidal effect and crop phytotoxicity) | 5 (90% or more of herbicidal effect and crop phytotoxicity) | 5 (90% or more of herbicidal effect and crop phytotoxicity) | 5 (90% or more of herbicidal effect and crop phytotoxicity) | 5 (90% or more of herbicidal effect and crop phytotoxicity)
CCn1ncc(C(=O)c2ccc(C(F)(F)F)n(CCOCCOC)c2=O)c1O [IV-203] | 5 (90% or more of herbicidal effect and crop phytotoxicity) | 5 (90% or more of herbicidal effect and crop phytotoxicity) | 5 (90% or more of herbicidal effect and crop phytotoxicity) | 5 (90% or more of herbicidal effect and crop phytotoxicity) | 5 (90% or more of herbicidal effect and crop phytotoxicity) | 5 (90% or more of herbicidal effect and crop phytotoxicity) | 5 (90% or more of herbicidal effect and crop phytotoxicity) | 5 (90% or more of herbicidal effect and crop phytotoxicity) | 5 (90% or more of herbicidal effect and crop phytotoxicity) | 5 (90% or more of herbicidal effect and crop phytotoxicity) | 5 (90% or more of herbicidal effect and crop phytotoxicity)
